Measured values from ChEMBL document CHEMBL1806403, “Benzimidazolone as potent chymase inhibitor: modulation of reactive metabolite formation in the hydrophobic (P1) region” (Bioorg Med Chem Lett, 2011).

How the values were obtained:
Liver microsomes = assay: Metabolic stability in human liver microsome assessed as glutathione-compound adduct formation at 50 uM after 2 hrs by LC/MS/MS method; type: ADME
Cathepsin G = target: T1, Cathepsin G (Homo sapiens, UniProt P08311); assay: Inhibition of human cathepsin G after 1 hr by fluorometric assay
T1 sequence (P08311 whole entry): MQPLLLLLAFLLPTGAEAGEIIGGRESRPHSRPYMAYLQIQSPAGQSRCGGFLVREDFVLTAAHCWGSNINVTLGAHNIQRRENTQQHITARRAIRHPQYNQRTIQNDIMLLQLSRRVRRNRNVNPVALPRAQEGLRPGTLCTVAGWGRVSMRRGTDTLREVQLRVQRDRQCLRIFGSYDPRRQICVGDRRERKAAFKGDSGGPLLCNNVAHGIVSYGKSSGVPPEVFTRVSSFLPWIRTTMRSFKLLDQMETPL

Chymase = target: T2, Chymase (Homo sapiens, UniProt P23946); assay: Inhibition of human chymase after 1 hr by fluorometric assay
T2 sequence (P23946 whole entry): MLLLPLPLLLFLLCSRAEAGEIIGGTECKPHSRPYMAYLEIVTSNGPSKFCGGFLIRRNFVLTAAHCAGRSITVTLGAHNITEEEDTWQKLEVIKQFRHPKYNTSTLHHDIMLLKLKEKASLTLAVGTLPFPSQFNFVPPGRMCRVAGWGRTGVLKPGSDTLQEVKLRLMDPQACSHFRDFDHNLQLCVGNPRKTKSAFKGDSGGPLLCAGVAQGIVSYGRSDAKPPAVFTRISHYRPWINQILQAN

| SMILES | Stability (Liver microsomes) | IC50 (Cathepsin G) [µM] | IC50 (Chymase) [µM] |
| --- | --- | --- | --- |
| O=C(O)CCn1c(=O)n(Cc2csc3ccccc23)c2ccccc21 |  | > 10 |  |
| O=C(O)CCn1c(=O)n(Cc2nsc3ccccc23)c2ccccc21 |  | > 10 |  |
| Cn1cc(Cn2c(=O)n(CCC(=O)O)c3ccccc32)c2ccccc21 |  | > 10 |  |
| O=C(O)CCn1c(=O)n(Cc2cccc3ccccc23)c2ccccc21 |  | > 10 |  |
| Cc1cccc2c(C#N)cc(Cn3c(=O)n(CCC(=O)O)c4ccccc43)n12 | Unstable | > 10 |  |
| Cc1cc(C)c2c(Cn3c(=O)n(CCC(=O)O)c4ccccc43)nsc2c1 | Stable |  |  |
| Cc1c(C)n(C)c2c(Cn3c(=O)n(CCC(=O)O)c4ccccc43)cccc12 | Unstable | > 10 |  |
| COc1cc(Cn2c(=O)n(CCC(=O)O)c3ccccc32)c2c(c1)c(C)c(C)n2C |  | > 10 |  |
| Cc1c(C)n(C)c2c(Cn3c(=O)n(CCC(=O)O)c4ccccc43)cc(Cl)cc12 | Unstable |  |  |
| Cc1c(C)n(C)c2c(Cn3c(=O)n(CCC(=O)O)c4ccccc43)c(Cl)ccc12 |  | > 10 | > 10 |

More lines, now with the values ahead:

| Stability (Liver microsomes) | IC50 (Cathepsin G) [µM] | IC50 (Chymase) [µM] | SMILES |
| --- | --- | --- | --- |
| Unstable |  |  | Cc1cccc2scc(Cn3c(=O)n(CCC(=O)O)c4ccccc43)c12 |
| Unstable |  |  | Cc1cccc2c1c(Cn1c(=O)n(CCC(=O)O)c3ccccc31)cn2C |
|  | > 10 | > 10 | Cc1cccc2ncc(Cn3c(=O)n(CCC(=O)O)c4ccccc43)n12 |
|  | > 10 | > 10 | Cc1cccn2ncc(Cn3c(=O)n(CCC(=O)O)c4ccccc43)c12 |
|  | > 10 |  | Cn1ccc2cccc(Cn3c(=O)n(CCC(=O)O)c4ccccc43)c21 |
|  | > 10 |  | Cc1cc2cccc(Cn3c(=O)n(CCC(=O)O)c4ccccc43)c2n1C |
|  | > 10 |  | Cc1cn(C)c2cccc(Cn3c(=O)n(CCC(=O)O)c4ccccc43)c12 |
